Test results published in patent publication US20260116910A1, “POLYCYCLIC COMPOUNDS AND METHODS THEREOF” (HEPAITECH (BEIJING) BIOPHARMA TECHNOLOGY CO., LTD., priority 2021, published 2026).
Where “and” joins values, the source holds several entries; their conditions need not be identical. Equal values may be shown once. Read-outs that look alike come from different tables or passages of the source.

Columns and labels:
human FXR (NR1H4) = biological target: T1, human FXR (NR1H4) (Homo sapiens, UniProt Q96RI1); assay: Human FXR (NR1H4) agonist assessment, FXRE-NanoLuc reporter in HEK293T cells; format: cell-based
T1 sequence (Q96RI1 1-476 isoform Q96RI1-1): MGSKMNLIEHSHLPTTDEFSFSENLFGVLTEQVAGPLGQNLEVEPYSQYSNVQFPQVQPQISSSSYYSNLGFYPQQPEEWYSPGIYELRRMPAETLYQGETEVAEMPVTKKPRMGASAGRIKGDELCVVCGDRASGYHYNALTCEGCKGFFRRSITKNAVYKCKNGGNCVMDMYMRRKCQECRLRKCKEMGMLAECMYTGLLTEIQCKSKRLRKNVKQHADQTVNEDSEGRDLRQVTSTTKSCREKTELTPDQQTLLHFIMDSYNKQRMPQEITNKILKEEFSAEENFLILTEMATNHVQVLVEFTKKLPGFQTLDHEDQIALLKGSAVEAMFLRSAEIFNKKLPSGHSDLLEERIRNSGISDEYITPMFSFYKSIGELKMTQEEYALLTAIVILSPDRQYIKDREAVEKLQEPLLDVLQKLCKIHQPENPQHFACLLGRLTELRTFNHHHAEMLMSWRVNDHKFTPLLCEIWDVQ
In short: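 HEK293T cells stably expressing human FXR with an FXRE-NanoLuc reporter were treated with compounds for 24 hr at 37 °C, with 0.01% DMSO as negative control. Medium was read for luminescence after 5 min with coelenterazine. EC50 was fitted by sigmoid to concentration-response data.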

MRGPRX4 = MRGPRX4 (Homo sapiens, UniProt Q96LA9); assay: MRGPRX4 activation, Fluo-8 Ca2+ FLIPR assay in HEK293T cells stably expressing MRGPRX4; format: cell-based; parameters: key to MRGPRX4 activation, Average / MRGPRX4 activation, Ave.: fluorescence change dF/F0
In short: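 Cells seeded overnight to >95% confluence, loaded 40-60 min at room temperature with 2 μM Fluo-8 AM, then kept in HHBS. Baseline read 30 s, compound added, signal followed 150 s more.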

[1] = FXR activation, HEK293T FXRE-NanoLuc reporter, 24 hr
[2] = FXR activation, HEK293T FXRE-NanoLuc reporter, 24 hr, read-out: EC50
[3] = MRGPRX4 activation, Ca2+ fluorescence, no activation in tested range reported as III, read-out: Activity (EC50 μM)

MRGPRX4, sequence (Q96LA9 whole entry): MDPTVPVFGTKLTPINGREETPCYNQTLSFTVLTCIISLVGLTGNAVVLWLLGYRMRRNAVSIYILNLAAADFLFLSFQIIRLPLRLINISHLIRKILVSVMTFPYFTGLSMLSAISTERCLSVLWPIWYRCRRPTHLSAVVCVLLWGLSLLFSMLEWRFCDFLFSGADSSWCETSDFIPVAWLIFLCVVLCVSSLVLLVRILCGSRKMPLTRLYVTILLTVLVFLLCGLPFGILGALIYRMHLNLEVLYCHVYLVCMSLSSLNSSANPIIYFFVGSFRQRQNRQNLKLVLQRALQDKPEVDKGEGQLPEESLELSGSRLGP

Structure (SMILES)	Efficacy (maximum measured induction of NanoLuc, normalized to CDCA set as 100%) (human FXR (NR1H4); [1])	EC50 (human FXR (NR1H4); [2]) [µM]	MRGPRX4 activation, fluorescence change (dF/F0), Average (MRGPRX4; Conc. (Log[M]) −4)	MRGPRX4 activation, fluorescence change (dF/F0), Average (MRGPRX4; Conc. (Log[M]) −4.5)	MRGPRX4 activation, fluorescence change (dF/F0), Average (MRGPRX4; Conc. (Log[M]) −5)	MRGPRX4 activation, fluorescence change (dF/F0), Average (MRGPRX4; Conc. (Log[M]) −5.5)	MRGPRX4 activation, fluorescence change (dF/F0), Average (MRGPRX4; Conc. (Log[M]) −6)	MRGPRX4 activation, fluorescence change (dF/F0), Average (MRGPRX4; Conc. (Log[M]) −7)	MRGPRX4 activation, fluorescence change (dF/F0), Average (MRGPRX4; Conc. (Log[M]) −8)	MRGPRX4 activation, fluorescence change (dF/F0), Average (MRGPRX4; Conc. (Log[M]) −9)	EC50 (MRGPRX4; [3]) [µM]	MRGPRX4 activation, Average (MRGPRX4; E3-9, Conc. (Log[M]) −4.0)	MRGPRX4 activation, Average (MRGPRX4; E3-9, Conc. (Log[M]) −4.5)	MRGPRX4 activation, Average (MRGPRX4; E3-9, Conc. (Log[M]) −5.0)	MRGPRX4 activation, Average (MRGPRX4; E3-9, Conc. (Log[M]) −5.4)	MRGPRX4 activation, Average (MRGPRX4; E3-9, Conc. (Log[M]) −5.9)	MRGPRX4 activation, Average (MRGPRX4; E3-9, Conc. (Log[M]) −6.4)	MRGPRX4 activation, Average (MRGPRX4; E3-9, Conc. (Log[M]) −6.9)	MRGPRX4 activation, Average (MRGPRX4; E3-9, Conc. (Log[M]) −7.3)	MRGPRX4 activation, Average (MRGPRX4; E3-9, Conc. (Log[M]) −7.8)	also measured
CC[C@H]1[C@@H](OC(=O)c2cccc(I)c2)[C@H]2[C@@H]3[C@@H](O)C=C([C@H](C)CCC(=O)OC)[C@@]3(C)CC[C@@H]2[C@@]2(C)CCCC[C@@H]12 [3-3]	C (100%<efficacy <=300%)	> 10	0.041	0.052	−0.045	−0.013	−0.015	−0.015	−0.031	−0.014	> 100										
CO/N=C1\C[C@@H]2C[C@H](OC(C)=O)CC[C@]2(C)[C@H]2CC[C@]3(C)[C@@H]([C@H](C)CCC(=O)OC)CC[C@H]3[C@H]12 [1-2]	D (efficacy <=100%)	> 10			0.027 and 0.022						50 to 100										
C[C@H](CCC(=O)O)[C@H]1CC[C@H]2[C@@H]3CC[C@@H]4CCCC[C@]4(C)[C@H]3CC[C@]12C [compound 17]		1 to 10	0.036 and 0.042								< 50										Efficacy (maximum measured induction of NanoLuc, normalized to CDCA set as 100%) (human FXR (NR1H4)): B (key: A: efficacy >400%; B: 300%<efficacy <=400%; C: 100%<efficacy <=300%; D: efficacy <=100%)
CC[C@H]1[C@@H](O)[C@@H]2[C@H](CC[C@]3(C)[C@@H]([C@H](C)CCNC(=O)NS(=O)(=O)c4cc(F)ccc4F)CC[C@@H]23)[C@@]2(C)CCCC[C@@H]12 [5-23]	A (efficacy >400%)	< 1									> 100										MRGPRX4 activation, Ave. (MRGPRX4; E3-7, Conc. (Log[M]) −4): −0.027; MRGPRX4 activation, Ave. (MRGPRX4; E3-7, Conc. (Log[M]) −4.5): −0.027; MRGPRX4 activation, Ave. (MRGPRX4; E3-7, Conc. (Log[M]) −5): −0.014; MRGPRX4 activation, Ave. (MRGPRX4; E3-7, Conc. (Log[M]) −5.5): −0.054; MRGPRX4 activation, Ave. (MRGPRX4; E3-7, Conc. (Log[M]) −6): −0.041; MRGPRX4 activation, Ave. (MRGPRX4; E3-7, Conc. (Log[M]) −7): 0.000
CC[C@H]1[C@@H](O)[C@@H]2[C@H](CC[C@]3(C)[C@@H]([C@H](C)CCN=C=S)CC[C@@H]23)[C@@]2(C)CCC(F)(F)C[C@@H]12 [11-2]	D (efficacy <=100%)											0.030	0.020	0.010	0.020	0.020	0.013	0.013	0.013	0.013	EC50 (human FXR (NR1H4)): > 10 µM; EC50 (MRGPRX4): > 100 µM; MRGPRX4 activation, Average (MRGPRX4; E3-9, Conc. (Log[M]) −8.3): 0.025
C[C@H](CCC(=O)O)[C@H]1CC[C@H]2[C@@H]3CC[C@@H]4CC(=O)CC[C@]4(C)[C@H]3CC[C@]12C [compound 16]	C (100%<efficacy <=300%)		0.416	0.322	0.130	−0.020	−0.010	0.013	0.012	−0.005											EC50 (human FXR (NR1H4)): > 10 µM; EC50 (MRGPRX4): < 50 µM
CC[C@H]1[C@@H](O)[C@@H]2[C@H](CC[C@]3(C)[C@@H]([C@H](C)CCNS(=O)(=O)c4cc(F)ccc4F)CC[C@@H]23)[C@@]2(C)CCCC[C@@H]12 [6-2]	C (100%<efficacy <=300%)	1 to 10									> 100	0.030	0.023	0.013	0.020	0.016	0.016	0.016	0.018	0.011	MRGPRX4 activation, Average (MRGPRX4; E3-9, Conc. (Log[M]) −8.3): 0.018
CC[C@H]1[C@@H](O)[C@@H]2[C@H](CC[C@]3(C)[C@@H]([C@H](C)CCNC(=O)NS(=O)(=O)c4ccc5c(c4)OCO5)CC[C@@H]23)[C@@]2(C)CCCC[C@@H]12 [5-6]	C (100%<efficacy <=300%)	< 1	0.077	0.033	0.010	0.017	0.013	0.010			> 100										
CC[C@H]1[C@@H](O)[C@@H]2[C@H](CC[C@]3(C)[C@@H]([C@H](C)CC(=O)O)CC[C@@H]23)[C@@]2(C)CCCC[C@@H]12 [compound 26]	C (100%<efficacy <=300%)	> 10	−0.070	−0.059	−0.090	−0.062	−0.067	−0.072	−0.090	−0.084	> 100										
CC[C@H]1[C@@H](O)[C@@H]2[C@H](CC[C@]3(C)[C@@H]([C@H](C)CCNC(=O)NS(=O)(=O)c4cccs4)CC[C@@H]23)[C@@]2(C)CCC(F)(F)C[C@@H]12 [10-4]	C (100%<efficacy <=300%)	< 1									> 100	−0.004	0.001	0.008	0.022	0.013	0.015	0.013	0.010	0.010	MRGPRX4 activation, Average (MRGPRX4; E3-9, Conc. (Log[M]) −8.3): 0.020
CC[C@H]1[C@@H](O)[C@@H]2[C@H](CC[C@]3(C)[C@@H]([C@H](C)CCNC(=S)NS(=O)(=O)c4ccc(C(C)(C)CF)cc4)CC[C@@H]23)[C@@]2(C)CCC(F)(F)C[C@@H]12 [11-4]		< 1									> 100	0.013	0.013	0.020	0.015	0.015	0.013	0.010	0.015	0.015	Efficacy (maximum measured induction of NanoLuc, normalized to CDCA set as 100%) (human FXR (NR1H4)): B (key: A: efficacy >400%; B: 300%<efficacy <=400%; C: 100%<efficacy <=300%; D: efficacy <=100%); MRGPRX4 activation, Average (MRGPRX4; E3-9, Conc. (Log[M]) −8.3): 0.022
CC[C@H]1[C@@H](O)[C@@H]2[C@H](CC[C@]3(C)[C@@H]([C@H](C)CCNC(=O)NS(=O)(=O)c4cccc(Cl)c4)CC[C@@H]23)[C@@]2(C)CCCC[C@@H]12 [5-7]	B (300%<efficacy <=400%)	< 1	0.070	0.027	0.030	0.020	0.020	0.017			> 100										
C[C@H](CCCO)[C@H]1CC[C@H]2[C@@H]3CC[C@@H]4CCCC[C@]4(C)[C@H]3CC[C@]12C [compound 77]		1 to 10	0.067	0.014	−0.029	−0.023	−0.017	−0.009	−0.014	−0.012	> 100										Efficacy (maximum measured induction of NanoLuc, normalized to CDCA set as 100%) (human FXR (NR1H4)): B (key: A: efficacy >400%; B: 300%<efficacy <=400%; C: 100%<efficacy <=300%; D: efficacy <=100%)
